Measurements from patent US8163793B2, “Proline derivatives” (Hoffman-La Roche Inc., priority 2009, dated 2012).

Columns and labels:
[1] = target: Cat L (UniProt P07711); assay: Cathepsin enzyme inhibition assay (fluorogenic peptide substrate Z-Val-Val-Arg-AMC), Cathepsin L; type: biochemical, human and mouse; details: enzyme 1 nM, substrate 20 μM, pH 6.5; read-out: CatL IC50
Procedure, shortened: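 Fluorogenic cleavage of Z-Val-Val-Arg-AMC (20 μM) by 1 nM Cat L was monitored at ex 360/em 465 nm for 20 min, the linear phase. The buffer was 100 mM potassium phosphate pH 6.5 with 5 mM EDTA and DTT. IC50 values were derived by standard methods, in μM.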

[2] = target: Cathepsin S (UniProt P25774); assay: Cathepsin enzyme inhibition assay (fluorogenic peptide substrate Z-Val-Val-Arg-AMC), Cathepsin S; type: biochemical, human and mouse; details: enzyme 1 nM, substrate 20 μM, pH 6.5; read-out: CatS IC50
Procedure, shortened: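 Compounds were combined with 1 nM human or mouse enzyme, and substrate then started the reaction. The buffer was potassium phosphate (100 mM, pH 6.5) containing EDTA-Na 5 mM, Triton X-100 0.001% and […] 5 mM.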

| IC50 [1] [nM] | IC50 [2] [nM] | Compound |
| --- | --- | --- |
| 50.3 | 0.07 | N#CC1(NC(=O)[C@@H]2C[C@@H](S(=O)(=O)c3ccc(N4CCN(C5CC5)CC4)cc3Cl)CN2C(=O)C2(c3ccc(Cl)nc3)CC2)CC1 [Example 374, (2S,4R)-4-[2-Chloro-4-(4-cyclopropyl-piperazin-1-yl)-benzenesulfonyl]-1-[1-(6-chloro-pyridin-3-yl)-cyclopropanecarbonyl]-pyrrolidine-2-carboxylic acid (1-cyano-cyclopropyl)-amide; Compound with Formic Acid] |
| 5370 | 0.29 | COc1ccc(S(=O)(=O)[C@@H]2C[C@@H](C(=O)NC3(C#N)CC3)N(c3cc(C)nn3C3CCC3)C2)c(Cl)c1 [Example 375, (2S,4R)-4-(2-Chloro-4-methoxy-benzenesulfonyl)-1-(2-cyclobutyl-5-methyl-2H-pyrazol-3-yl)-pyrrolidine-2-carboxylic acid (1-cyano-cyclopropyl)-amide] |
| 1760 | 0.657 | COc1ccc(S(=O)(=O)[C@@H]2C[C@@H](C(=O)NC3(C#N)CC3)N(c3cc(C)nn3Cc3ccccc3)C2)c(Cl)c1 [Example 376, (2S,4R)-1-(2-Benzyl-5-methyl-2H-pyrazol-3-yl)-4-(2-chloro-4-methoxy-benzenesulfonyl)-pyrrolidine-2-carboxylic acid (1-cyano-cyclopropyl)-amide] |
| 200 | 0.1 | COCCOc1ccc(S(=O)(=O)[C@@H]2CC(C(=O)NC3(C#N)CC3)N(C(=O)C3(c4ccc(Cl)nc4)CC3)C2)c(Cl)c1 (stereo partly drawn) [Example 378, (R)-4-[2-Chloro-4-(2-methoxy-ethoxy)-benzenesulfonyl]-1-[1-(6-chloro-pyridin-3-yl)-cyclopropanecarbonyl]-pyrrolidine-2-carboxylic acid (1-cyano-cyclopropyl)-amide] |
| 2710 | 1.75 | Cc1cc(N2C[C@H](S(=O)(=O)c3ccccc3Cl)C[C@H]2C(=O)NC2(C#N)CC2)n(Cc2ccccc2)n1 [Example 379, (2S,4R)-1-(2-Benzyl-5-methyl-2H-pyrazol-3-yl)-4-(2-chloro-benzenesulfonyl)-pyrrolidine-2-carboxylic acid (1-cyano-cyclopropyl)-amide] |
| 130 | 0.05 | N#CC1(NC(=O)[C@@H]2C[C@@H](S(=O)(=O)c3ccc(-n4cccn4)cc3Cl)CN2C(=O)C2(c3ccc(Cl)nc3)CC2)CC1 [Example 380, (2S,4R)-4-(2-Chloro-4-pyrazol-1-yl-benzenesulfonyl)-1-[1-(6-chloro-pyridin-3-yl)-cyclopropanecarbonyl]-pyrrolidine-2-carboxylic acid (1-cyano-cyclopropyl)-amide] |
| 102 | 0.295 | C[C@H](Oc1ccc(S(=O)(=O)[C@@H]2C[C@@H](C(=O)NC3(C#N)CC3)N(C(=O)C3(c4ccc(Cl)nc4)CC3)C2)c(Cl)c1)C(F)(F)F [Example 381, (2S,4R)-1-[1-(6-Chloro-pyridin-3-yl)-cyclopropanecarbonyl]-4-[2-chloro-4-((S)-2,2,2-trifluoro-1-methyl-ethoxy)-benzenesulfonyl]-pyrrolidine-2-carboxylic acid (1-cyano-cyclopropyl)-amide] |
| 68 | 0.04 | N#CC1(NC(=O)[C@@H]2C[C@@H](S(=O)(=O)c3ccc(-n4ccnc4)cc3Cl)CN2C(=O)C2(c3ccc(Cl)nc3)CC2)CC1 [Example 382, (2S,4R)-4-(2-Chloro-4-imidazol-1-yl-benzenesulfonyl)-1-[1-(6-chloro-pyridin-3-yl)-cyclopropanecarbonyl]-pyrrolidine-2-carboxylic acid (1-cyano-cyclopropyl)-amide] |
| 20000 | 14 | N#CC1CCN2C[C@H](S(=O)(=O)c3ccc(F)cc3Cl)C[C@@]12C(=O)NC1(C#N)CC1 (stereo partly drawn) [Example 383, (6R,7aS)-6-(2-Chloro-4-fluoro-benzenesulfonyl)-1-cyano-tetrahydro-pyrrolizine-7a-carboxylic Acid (1-cyano-cyclopropyl)-amide] |
